Experimental data reported in PubChem BioAssay (NCI).
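These data come from cells grown in 96-well plates and exposed to compound for 48 hours at five concentrations. At the GI50, growth is halved. TGI marks complete inhibition of growth.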

Tests used:
Assay in all cases: NCI-60 cell line screen, 48 h
HT29 colon = system: HT29 colon
MCF7 breast = system: MCF7 breast
HOP-92 NSCLC = system: HOP-92 NSCLC
SK-MEL-5 melanoma = system: SK-MEL-5 melanoma
DU-145 prostate = system: DU-145 prostate
UO-31 renal = system: UO-31 renal
786-0 renal = system: 786-0 renal
ACHN renal = system: ACHN renal
MALME-3M melanoma = system: MALME-3M melanoma
NCI/ADR-RES ovarian = system: NCI/ADR-RES ovarian
OVCAR-3 ovarian = system: OVCAR-3 ovarian
RXF 393 renal = system: RXF 393 renal
LOX IMVI melanoma = system: LOX IMVI melanoma
MOLT-4 leukemia = system: MOLT-4 leukemia
HCC-2998 colon = system: HCC-2998 colon
OVCAR-5 ovarian = system: OVCAR-5 ovarian
IGROV1 ovarian = system: IGROV1 ovarian
HS 578T breast = system: HS 578T breast
SK-MEL-2 melanoma = system: SK-MEL-2 melanoma
OVCAR-4 ovarian = system: OVCAR-4 ovarian
A498 renal = system: A498 renal
SNB-19 CNS = system: SNB-19 CNS
NCI-H226 lung = system: NCI-H226 lung
SF-268 CNS = system: SF-268 CNS
SK-MEL-28 melanoma = system: SK-MEL-28 melanoma
COLO 205 colon = system: COLO 205 colon
SF-539 CNS = system: SF-539 CNS
SK-OV-3 ovarian = system: SK-OV-3 ovarian
K-562 leukemia = system: K-562 leukemia
UACC-62 melanoma = system: UACC-62 melanoma
NCI-H460 lung = system: NCI-H460 lung
EKVX NSCLC = system: EKVX NSCLC
UACC-257 melanoma = system: UACC-257 melanoma
SW-620 colon = system: SW-620 colon
TK-10 renal = system: TK-10 renal
OVCAR-8 ovarian = system: OVCAR-8 ovarian
BT-549 breast = system: BT-549 breast
NCI-H522 lung = system: NCI-H522 lung
T-47D breast = system: T-47D breast
HL-60(TB) leukemia = system: HL-60(TB) leukemia
RPMI-8226 leukemia = system: RPMI-8226 leukemia
SF-295 CNS = system: SF-295 CNS
MDA-MB-231 breast = system: MDA-MB-231 breast
M14 melanoma = system: M14 melanoma
HCT-116 colon = system: HCT-116 colon
CAKI-1 renal = system: CAKI-1 renal
SN12C renal = system: SN12C renal
KM12 colon = system: KM12 colon
SR leukemia = system: SR leukemia
A549 NSCLC = system: A549 NSCLC
SNB-75 CNS = system: SNB-75 CNS
MDA-MB-435 = system: MDA-MB-435
HOP-62 NSCLC = system: HOP-62 NSCLC
U251 CNS = system: U251 CNS
HCT-15 colon = system: HCT-15 colon
PC-3 prostate = system: PC-3 prostate

Q: Which results are given for `CCn1c2ccc(/C=N/OCCCN(C)C)cc2c2cc(/C=N/OCCCN(C)C)ccc21`?
A: GI50 (HT29 colon): 1.52 µM; TGI (HT29 colon): 3.51 µM; GI50 (MCF7 breast): 1.49 µM; TGI (MCF7 breast): 3.07 µM; GI50 (HOP-92 NSCLC): 1.7 µM; TGI (HOP-92 NSCLC): 8.22 µM; GI50 (SK-MEL-5 melanoma): 1.8 µM; TGI (SK-MEL-5 melanoma): 3.23 µM; GI50 (DU-145 prostate): 3.46 µM; TGI (DU-145 prostate): 12.3 µM; GI50 (UO-31 renal): 1.5 µM; TGI (UO-31 renal): 3.24 µM; GI50 (786-0 renal): 1.55 µM; TGI (786-0 renal): 3.2 µM; GI50 (ACHN renal): 1.72 µM; TGI (ACHN renal): 3.13 µM; GI50 (MALME-3M melanoma): 1.8 µM; TGI (MALME-3M melanoma): 3.4 µM; GI50 (NCI/ADR-RES ovarian): 1.97 µM; TGI (NCI/ADR-RES ovarian): 4.89 µM; GI50 (OVCAR-3 ovarian): 2.08 µM; TGI (OVCAR-3 ovarian): 5.28 µM; GI50 (RXF 393 renal): 1.18 µM; TGI (RXF 393 renal): 2.49 µM; GI50 (LOX IMVI melanoma): 1.5 µM; TGI (LOX IMVI melanoma): 2.94 µM; GI50 (MOLT-4 leukemia): 1.92 µM; TGI (MOLT-4 leukemia): 6.21 µM; GI50 (HCC-2998 colon): 1.51 µM; TGI (HCC-2998 colon): 2.95 µM; GI50 (OVCAR-5 ovarian): 2.88 µM; TGI (OVCAR-5 ovarian): 11.5 µM; GI50 (IGROV1 ovarian): 3.08 µM; TGI (IGROV1 ovarian): 10.3 µM; GI50 (HS 578T breast): 2.52 µM; TGI (HS 578T breast): 7.95 µM; GI50 (SK-MEL-2 melanoma): 15.7 µM; TGI (SK-MEL-2 melanoma): 30.3 µM; GI50 (OVCAR-4 ovarian): 1.73 µM; TGI (OVCAR-4 ovarian): 3.35 µM; GI50 (A498 renal): 4.45 µM; TGI (A498 renal): 17.2 µM; GI50 (SNB-19 CNS): 3.65 µM; TGI (SNB-19 CNS): 14 µM; GI50 (NCI-H226 lung): 10 µM; TGI (NCI-H226 lung): 25.2 µM; GI50 (SF-268 CNS): 3.69 µM; TGI (SF-268 CNS): 14.2 µM; GI50 (SK-MEL-28 melanoma): 1.65 µM; TGI (SK-MEL-28 melanoma): 3.18 µM; GI50 (COLO 205 colon): 1.61 µM; TGI (COLO 205 colon): 3.05 µM; GI50 (SF-539 CNS): 1.62 µM; TGI (SF-539 CNS): 2.99 µM; GI50 (SK-OV-3 ovarian): 16.4 µM; TGI (SK-OV-3 ovarian): 31.2 µM; GI50 (K-562 leukemia): 1.49 µM; TGI (K-562 leukemia): 3.63 µM; GI50 (UACC-62 melanoma): 1.92 µM; TGI (UACC-62 melanoma): 3.87 µM; GI50 (NCI-H460 lung): 2.02 µM; TGI (NCI-H460 lung): 4.36 µM; GI50 (EKVX NSCLC): 3.26 µM; TGI (EKVX NSCLC): 13.7 µM; GI50 (UACC-257 melanoma): 1.68 µM; TGI (UACC-257 melanoma): 3.09 µM; GI50 (SW-620 colon): 1.81 µM; TGI (SW-620 colon): 3.78 µM; GI50 (TK-10 renal): 14.1 µM; TGI (TK-10 renal): 28.2 µM; GI50 (OVCAR-8 ovarian): 2.07 µM; TGI (OVCAR-8 ovarian): 4.88 µM; GI50 (BT-549 breast): 1.71 µM; TGI (BT-549 breast): 3.22 µM; GI50 (NCI-H522 lung): 1.73 µM; TGI (NCI-H522 lung): 3.43 µM; GI50 (T-47D breast): 1.8 µM; TGI (T-47D breast): 3.82 µM; GI50 (HL-60(TB) leukemia): 1.68 µM; TGI (HL-60(TB) leukemia): 3.95 µM; GI50 (RPMI-8226 leukemia): 1.77 µM; TGI (RPMI-8226 leukemia): 4.08 µM; GI50 (SF-295 CNS): 1.94 µM; TGI (SF-295 CNS): 3.82 µM; GI50 (MDA-MB-231 breast): 2.23 µM; TGI (MDA-MB-231 breast): 5.34 µM; GI50 (M14 melanoma): 1.7 µM; TGI (M14 melanoma): 3.23 µM; GI50 (HCT-116 colon): 1.27 µM; TGI (HCT-116 colon): 2.7 µM; GI50 (CAKI-1 renal): 1.43 µM; TGI (CAKI-1 renal): 2.74 µM; GI50 (SN12C renal): 9.08 µM; TGI (SN12C renal): 21.5 µM; GI50 (KM12 colon): 3.24 µM; TGI (KM12 colon): 13.7 µM; GI50 (SR leukemia): 1.83 µM; TGI (SR leukemia): 4.38 µM; GI50 (A549 NSCLC): 1.59 µM; TGI (A549 NSCLC): 3.01 µM; GI50 (SNB-75 CNS): 1.68 µM; TGI (SNB-75 CNS): 3.93 µM; GI50 (MDA-MB-435): 1.48 µM; TGI (MDA-MB-435): 2.84 µM; GI50 (HOP-62 NSCLC): 4.64 µM; TGI (HOP-62 NSCLC): 18.9 µM; GI50 (U251 CNS): 1.62 µM; TGI (U251 CNS): 3.14 µM; GI50 (HCT-15 colon): 1.75 µM; TGI (HCT-15 colon): 3.96 µM; GI50 (PC-3 prostate): 2.51 µM; TGI (PC-3 prostate): 10.9 µM
